Structures can show the parent of a compound that is named as a salt. Where two headings read alike, the source gives them in different places.
How the values were obtained:
rat 5-HT7 receptor = rat 5-HT7 receptor (Rattus norvegicus (Rat), UniProt P32305); test: r5-HT7 binding assay, competitive radioligand binding with [3H]5-CT
Procedure, shortened: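 Whole r5-HT7-transfected HEK-293 cells first received test compound for 10 min. They were then exposed to 100 nM 5-CT for 20 min before lysis and competitive immunoassay of cAMP. Affinity came from displacement of [3H]5-CT on membranes of the same recombinant line, expressed as Ki.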

r5-HT7 receptor = r5-HT7 receptor (Rattus norvegicus (Rat), UniProt P32305); test: HitHunter cAMP assay, antagonist testing against 100 nM 5-CT; format: cell-based
Experimental: (§1) Receptor binding was performed using membrane fractions prepared from the HEK-293 cell line recombinantly expressing rat 5-HT7 receptors (NCBI accession NM_022938). Compound affinity for the rat 5-HT7 receptor subtype was evaluated by competitive radioligand binding assays using 5-carboxamido[^3H]tryptamine ([^3H]5-CT) (Amersham Biosciences, cat. 90000403) detection. HitHunter™ cAMP assays are in-vitro based competitive immunoassays. The assay was performed on the HEK-293 cell line stably transfected with r5-HT7 receptor. Cells were pre-incubated with test compounds for 10 minutes. For antagonist testing, the cells were then challenged with 100 nM 5-CT for 20 minutes. Cells were then lysed and cAMP measured according to manufacturers protocol (Amersham, cat. NET791250UC) or [^3H]mesulergine (Amersham, cat. TRK1041). The assay was performed on membranes prepared from HEK-293 cells stably transfected with h5-HT6. Following centrifugation, membranes were resuspended and incubated for 60 min at room temperature with 1.7 nM [^3H]LSD in the presence of increasing concentration of test compounds. Nonspecific binding was defined in the presence of 10 μM clozapine (Tocris, cat. TRK1068). Homogenized HEK-293 membranes expressing the human SERT were incubated in 50 mM Tris-HCl (pH 7.5), 120 mM NaCl, 5 mM KCl with [^3H]-citalopram (3 nM) with or without test compounds. Nonspecific binding was determined in the presence of 10 μM fluoxetine. Radioactivity readouts and Ki values were performed as previously described for r5-HT7. […] Compounds were assayed in their free form or as salts, as indicated in the Examples section above.

h5-HT6 = h5-HT6 (Homo sapiens (Human), UniProt P50406); test: h5-HT6 binding assay with [3H]LSD on HEK-293 membranes; details: read-out: h5HT6 binding Ki
Experimental: as §1

human SERT = human SERT (Homo sapiens (Human), UniProt P31645); test: human SERT binding assay with [3H]-citalopram on HEK-293 membranes; details: read-out: hSERT binding Ki
h5HT2A = h5HT2A (Homo sapiens (Human), UniProt P28223); test: h5HT2A binding
h5HT2B = h5HT2B (Homo sapiens (Human), UniProt P41595); test: h5HT2B binding
h5HT2C = h5HT2C (Homo sapiens (Human), UniProt P28335); test: h5HT2C binding
[1] = antagonist testing, 100 nM 5-CT challenge, HEK-293 r5-HT7, read-out: R5HT7 cAMP pKb (converted)
[2] = rat 5-HT7 receptor, HEK-293 membranes
[3] = h5-HT6, [3H]LSD, HEK-293 membranes

h5HT2C, sequence (P28335 33-458): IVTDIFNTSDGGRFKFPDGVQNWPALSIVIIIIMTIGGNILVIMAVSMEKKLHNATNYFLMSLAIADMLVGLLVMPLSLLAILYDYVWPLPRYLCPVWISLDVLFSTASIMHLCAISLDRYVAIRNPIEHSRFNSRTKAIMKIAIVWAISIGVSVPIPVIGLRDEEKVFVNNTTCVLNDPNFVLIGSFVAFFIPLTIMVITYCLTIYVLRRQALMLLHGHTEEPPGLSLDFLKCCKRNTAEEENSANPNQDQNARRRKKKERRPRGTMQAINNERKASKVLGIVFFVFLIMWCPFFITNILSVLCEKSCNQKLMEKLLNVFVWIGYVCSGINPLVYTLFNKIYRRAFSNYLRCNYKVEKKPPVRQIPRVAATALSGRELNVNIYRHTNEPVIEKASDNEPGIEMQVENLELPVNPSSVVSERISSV
h5-HT6, sequence (P50406 whole entry): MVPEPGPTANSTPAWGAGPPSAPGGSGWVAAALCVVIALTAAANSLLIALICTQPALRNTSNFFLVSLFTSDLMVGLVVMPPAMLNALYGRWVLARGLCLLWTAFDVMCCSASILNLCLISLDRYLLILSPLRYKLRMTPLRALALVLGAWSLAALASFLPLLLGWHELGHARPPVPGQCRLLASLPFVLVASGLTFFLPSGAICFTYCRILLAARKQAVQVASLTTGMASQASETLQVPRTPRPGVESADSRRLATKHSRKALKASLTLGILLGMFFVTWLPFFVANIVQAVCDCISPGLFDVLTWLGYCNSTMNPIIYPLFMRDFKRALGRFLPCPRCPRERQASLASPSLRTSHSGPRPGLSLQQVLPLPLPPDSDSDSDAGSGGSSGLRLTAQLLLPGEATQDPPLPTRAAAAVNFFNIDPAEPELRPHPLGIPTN
h5HT2A, sequence (P28223 whole entry): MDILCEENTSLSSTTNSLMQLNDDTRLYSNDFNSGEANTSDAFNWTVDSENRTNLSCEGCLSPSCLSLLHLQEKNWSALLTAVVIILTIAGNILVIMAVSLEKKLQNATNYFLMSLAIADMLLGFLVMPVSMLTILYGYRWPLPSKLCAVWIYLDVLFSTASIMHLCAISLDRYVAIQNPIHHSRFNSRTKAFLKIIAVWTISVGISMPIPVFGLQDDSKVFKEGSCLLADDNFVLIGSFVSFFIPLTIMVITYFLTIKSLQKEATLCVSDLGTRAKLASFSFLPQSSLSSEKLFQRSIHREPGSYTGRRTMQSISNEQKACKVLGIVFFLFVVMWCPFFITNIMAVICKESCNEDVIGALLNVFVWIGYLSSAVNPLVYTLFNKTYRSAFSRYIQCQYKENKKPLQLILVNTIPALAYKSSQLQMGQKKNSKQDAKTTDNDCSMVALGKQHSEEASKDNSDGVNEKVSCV
human SERT, sequence (P31645 whole entry): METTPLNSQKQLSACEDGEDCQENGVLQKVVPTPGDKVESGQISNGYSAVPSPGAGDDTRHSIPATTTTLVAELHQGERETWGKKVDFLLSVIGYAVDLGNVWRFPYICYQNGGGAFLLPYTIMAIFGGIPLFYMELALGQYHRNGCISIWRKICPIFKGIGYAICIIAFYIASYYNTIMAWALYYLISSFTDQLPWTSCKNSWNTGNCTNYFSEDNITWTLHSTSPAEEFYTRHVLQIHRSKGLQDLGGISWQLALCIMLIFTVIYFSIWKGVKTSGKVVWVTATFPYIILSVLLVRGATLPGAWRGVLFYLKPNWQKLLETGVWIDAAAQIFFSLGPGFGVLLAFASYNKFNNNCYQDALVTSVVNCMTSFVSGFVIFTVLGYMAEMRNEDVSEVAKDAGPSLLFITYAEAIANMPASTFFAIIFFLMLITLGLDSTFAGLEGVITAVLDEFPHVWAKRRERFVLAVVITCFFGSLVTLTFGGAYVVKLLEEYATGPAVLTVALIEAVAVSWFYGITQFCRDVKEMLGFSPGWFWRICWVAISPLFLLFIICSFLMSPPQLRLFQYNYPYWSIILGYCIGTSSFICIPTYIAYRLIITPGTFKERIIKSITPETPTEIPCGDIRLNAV
h5HT2B, sequence (P41595 whole entry): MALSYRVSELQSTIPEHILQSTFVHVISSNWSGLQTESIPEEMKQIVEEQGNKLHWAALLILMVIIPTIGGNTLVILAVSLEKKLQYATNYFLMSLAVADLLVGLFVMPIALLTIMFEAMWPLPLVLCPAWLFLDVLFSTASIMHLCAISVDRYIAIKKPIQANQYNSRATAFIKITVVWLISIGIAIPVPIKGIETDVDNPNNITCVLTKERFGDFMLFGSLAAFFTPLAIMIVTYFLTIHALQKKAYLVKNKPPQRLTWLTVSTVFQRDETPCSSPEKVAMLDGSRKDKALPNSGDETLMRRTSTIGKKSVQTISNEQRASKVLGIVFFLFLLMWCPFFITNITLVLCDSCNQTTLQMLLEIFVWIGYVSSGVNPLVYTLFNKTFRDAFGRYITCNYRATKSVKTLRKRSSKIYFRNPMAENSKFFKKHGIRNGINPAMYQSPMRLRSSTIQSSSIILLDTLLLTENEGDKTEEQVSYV
rat 5-HT7 receptor, sequence (P32305 1-435): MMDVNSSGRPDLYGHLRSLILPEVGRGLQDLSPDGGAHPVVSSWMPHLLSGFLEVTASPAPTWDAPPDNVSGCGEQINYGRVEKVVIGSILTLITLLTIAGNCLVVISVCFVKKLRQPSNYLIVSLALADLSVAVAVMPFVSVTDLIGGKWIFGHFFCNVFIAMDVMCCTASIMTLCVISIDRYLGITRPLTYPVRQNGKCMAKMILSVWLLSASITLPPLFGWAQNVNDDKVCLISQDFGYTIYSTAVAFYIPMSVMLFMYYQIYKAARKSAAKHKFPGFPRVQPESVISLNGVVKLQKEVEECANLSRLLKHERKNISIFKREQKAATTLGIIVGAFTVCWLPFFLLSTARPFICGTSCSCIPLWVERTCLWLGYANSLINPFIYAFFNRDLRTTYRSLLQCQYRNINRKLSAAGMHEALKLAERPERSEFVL
r5-HT7 receptor, sequence (P32305 1-435): as above

| Ki (h5HT2A) [nM] | Ki (h5HT2B) [nM] | Ki (h5HT2C) [nM] | Structure (SMILES) | Ki (rat 5-HT7 receptor; rat 5-HT7, HEK-293 membranes) [nM] | Kb (r5-HT7 receptor; [1]) [nM] | Ki (h5-HT6; h5-HT6, HEK-293 membranes, [3H]LSD) [nM] | Ki (human SERT) [nM] | Ki (rat 5-HT7 receptor; [2]) [nM] | Ki (h5-HT6; [3]) [nM] | Kb (r5-HT7 receptor) [nM] |
| --- | --- | --- | --- | --- | --- | --- | --- | --- | --- | --- |
| – | – | – | Brc1ccc(Oc2ccccc2)c(OC2CNC2)c1 [Example 244, 3-(5-Bromo-2-phenoxy-phenoxy)-azetidine] | 20 | 251 | 46 | 5000 | – | – | – |
| 11 | 14 | 71 | Fc1ccc(CCOc2ccc(Cl)cc2OC2CNC2)cc1 [Example 193, 3-[5-Chloro-2-[2-(4-fluoro-phenyl)-ethoxy]-phenoxy]-azetidine] | – | – | – | 9 | 5 | – | – |
| – | – | – | Clc1cccc(COc2ccc(Br)cc2OC2CCNCC2)c1 [Example 65, 4-[5-Bromo-2-(3-chloro-benzyloxy)-phenoxy]-piperidine] | – | 126 | – | 14 | 11 | 41 | – |
| 5 | 12 | 38 | FC(F)(COc1ccc(Cl)cc1OC1CNC1)c1ccccc1 [Example 184, 3-[5-Chloro-2-(2,2-difluoro-2-phenyl-ethoxy)-phenoxy]-azetidine] | – | 50.1 | – | 124 | 23 | – | – |
| – | – | – | CN1CC[C@@H](Oc2cc(Cl)ccc2OCc2cccc(Cl)c2)C1 [Example 59, (R)-3-[5-Chloro-2-(3-chloro-benzyloxy)-phenoxy]-1-methyl-pyrrolidine] | – | 15.8 | – | 353 | 27 | 84 | – |
| – | – | – | Clc1ccc(OCC2CCCCC2)c(OC2CNC2)c1 [Example 73, 3-(5-Chloro-2-cyclohexylmethoxy-phenoxy)-azetidine trifluoroacetate] | – | – | – | – | 23 | 12 | 251 |
| – | – | – | Clc1cccc(COc2ccc(Cl)cc2OC2CNC2)c1 [Example 37, 3-[5-Chloro-2-(3-chloro-benzyloxy)-phenoxy]-azetidine] | – | 126 | – | 7 | 8 | 89 | – |
| – | – | – | Fc1cccc(COc2ccc(Br)cc2OC2CNC2)c1 [Example 17, 3-[5-Bromo-2-(3-fluoro-benzyloxy)-phenoxy]-azetidine trifluroacetate] | – | 50.1 | – | 4 | 10 | 39 | – |
| – | – | – | CC(Oc1ccc(Cl)cc1OC1CNC1)c1ccc(C(F)(F)F)o1 (racemic) [Example 146, (±)-3-[5-Chloro-2-[1-(5-trifluoromethyl-furan-2-yl)-ethoxy]-phenoxy]-azetidine] | – | 7.94 | – | 59 | 12 | 558 | – |
| 14 | 69 | 56 | COc1cccc(CCOc2ccc(Cl)cc2OC2CNC2)c1 [Example 190, 3-[5-Chloro-2-[2-(3-methoxy-phenyl)-ethoxy]-phenoxy]-azetidine] | – | – | – | 211 | 8 | – | – |
| – | – | – | Clc1ccccc1COc1ccc(Br)cc1OC1CNC1 [Example 15, 3-[5-Bromo-2-(2-chloro-benzyloxy)-phenoxy]-azetidine trifluoroacetate] | – | 631 | – | 5 | 17 | 45 | – |
| 8 | 11 | 53 | Fc1cccc(CCOc2ccc(Cl)cc2OC2CNC2)c1 [Example 191, 3-[5-Chloro-2-[2-(3-fluoro-phenyl)-ethoxy]-phenoxy]-azetidine] | – | – | – | 7 | 8 | – | – |
| 4 | 195 | 81 | COc1ccc(CCOc2ccc(Cl)cc2OC2CNC2)cc1 [Example 194, 3-[5-Chloro-2-[2-(4-methoxy-phenyl)-ethoxy]-phenoxy]-azetidine] | – | – | – | 141 | 4 | – | – |
| 8 | 28 | 143 | Clc1ccc(C2(COc3ccc(Cl)cc3OC3CNC3)CCC2)cc1 [Example 188, 3-[5-Chloro-2-[1-(4-chloro-phenyl)-cyclobutylmethoxy]-phenoxy]-azetidine] | – | – | – | 65 | 34 | – | – |
| 76 | 367 | 590 | FC(F)(F)c1ccnc(COc2ccc(Cl)cc2OC2CNC2)c1 [Example 81, 2-[2-(Azetidin-3-yloxy)-4-chloro-phenoxymethyl]-4-trifluoromethyl-pyridine] | – | – | – | 1170 | 97 | – | – |
| 605 | 7570 | 5000 | C[C@@H](Oc1ccc(C(F)(F)F)cc1OC1CNC1)c1cccc(C(F)(F)F)c1 (stereo in doubt) [Example 200, 3-[5-Trifluoromethyl-2-[1-(3-trifluoromethyl-phenyl)-ethoxy]-phenoxy]-azetidine] | – | 158 | – | 224 | 31 | – | – |
| 20 | 83 | 160 | Clc1ccc(O[C@@H]2CCNC2)c(OCc2ccccc2)c1 [Example 90, (R)-3-(2-Benzyloxy-4-chloro-phenoxy)-pyrrolidine] | – | – | – | – | 920 | – | – |
| 9 | 22 | 140 | Clc1ccc(CCOc2ccc(Cl)cc2OC2CNC2)cc1 [Example 192, 3-[5-Chloro-2-[2-(4-chloro-phenyl)-ethoxy]-phenoxy]-azetidine] | – | – | – | 88 | 8 | – | – |
| 24 | 30 | 181 | Clc1ccc(OC2CCc3ccccc3C2)c(OC2CNC2)c1 (stereo not shown) [Example 164, 3-[5-Chloro-2-(1,2,3,4-tetrahydro-naphthalen-2-yloxy)-phenoxy]-azetidine] | – | – | – | 8 | 33 | – | – |
| 8 | 21 | 48 | COC(COc1ccc(Cl)cc1OC1CNC1)c1ccccc1 (stereo not shown) [Example 168, 3-[5-Chloro-2-(2-methoxy-2-phenyl-ethoxy)-phenoxy]-azetidine] | – | – | – | – | 130 | – | – |

| Structure (SMILES) | Ki (h5HT2A) [nM] | Ki (h5HT2B) [nM] | Ki (h5HT2C) [nM] | Ki (rat 5-HT7 receptor; rat 5-HT7, HEK-293 membranes) [nM] | Kb (r5-HT7 receptor; [1]) [nM] | Ki (h5-HT6; h5-HT6, HEK-293 membranes, [3H]LSD) [nM] | Ki (human SERT) [nM] | Ki (rat 5-HT7 receptor; [2]) [nM] | Ki (h5-HT6; [3]) [nM] | Kb (r5-HT7 receptor) [nM] |
| --- | --- | --- | --- | --- | --- | --- | --- | --- | --- | --- |
| FC(F)(F)c1ccc2c(c1)C(Oc1ccc(Cl)cc1OC1CNC1)CC2 (stereo not shown) [Example 160, 3-[5-Chloro-2-(6-trifluoromethyl-indan-1-yloxy)-phenoxy]-azetidine] | 5 | 25 | 146 | – | 5.01 | – | 210 | 15 | – | – |
| Cc1ccc2c(c1)C(Oc1ccc(Cl)cc1OC1CNC1)CC2 (racemic) [Example 158, (±)-3-[5-Chloro-2-(6-methyl-indan-1-yloxy)-phenoxy]-azetidine] | 8 | 36 | 146 | – | 10 | – | 67 | 15 | – | – |
| Cc1nc(COc2ccc(Cl)cc2OC2CNC2)cs1 [Example 29, 4-[2-(Azetidin-3-yloxy)-4-chloro-phenoxymethyl]-2-methyl-thiazole] | 225 | 529 | 1110 | – | 126 | – | 27 | 83 | – | – |
| Clc1ccc(OC2CCc3ccc(Cl)cc32)c(OC2CNC2)c1 (racemic) [Example 159, (±)-3-[5-Chloro-2-(6-chloro-indan-1-yloxy)-phenoxy]-azetidine] | 6 | 41 | 196 | – | 7.94 | – | 21 | 17 | – | – |
| FC(F)(F)c1ccc(OCc2ccc(C(F)(F)F)o2)c(OC2CNC2)c1 [Example 199, 3-[5-Trifluoromethyl-2-(5-trifluoromethyl-furan-2-ylmethoxy)-phenoxy]-azetidine] | 103 | 1220 | 526 | – | 39.8 | – | 128 | 18 | – | – |
| FC(F)(F)c1cccc(COc2ccc(Cl)cc2OC2CNC2)n1 [Example 79, 2-[2-(Azetidin-3-yloxy)-4-chloro-phenoxymethyl]-6-trifluoromethyl-pyridine] | 69 | 248 | 290 | – | 50.1 | – | 3 | 26 | – | – |
| FC(F)(F)c1ccc(OCc2ccccc2)c(OC2CNC2)c1 [Example 201, hydrochloride] | 67 | 184 | 498 | – | 50.1 | – | 56 | 31 | – | – |
